The target in experiment [1] is VEGFR2 (KDR) kinase, purified cytoplasmic domain KDR protein (Homo sapiens (Human), UniProt P35968). As to the kind of experiment: VEGFR2 Kinase Assay. The class given is biochemical. The note with it: 2.7 μM ATP, poly-Glu-Tyr (4:1) substrate, 15 minute incubation at 30° C., ELISA read at 492 nm. On the procedure: Biochemical KDR kinase assays were performed in 96 well microliter plates that were coated overnight with 75 μg/well of poly-Glu-Tyr (4:1) in 10 mM Phosphate Buffered Saline (PBS), pH 7.4. The coated plates were washed with 2 mLs per well PBS+0.05% Tween-20 (PBS-T), blocked by incubation with PBS containing 1% BSA, then washed with 2 mLs per well PBS-T prior to starting the reaction. […] Reactions were initiated by the addition 20 ul per well of kinase buffer containing 200-300 ng purified cytoplasmic domain KDR protein (BPS Bioscience, San Diego, Calif.). Following a 15 minute incubation at 30° C., the reactions were washed 2 mLs per well PBS-T. 100 μl of a monoclonal anti-phosphotyrosine antibody-peroxidase conjugate diluted 1:10,000 in PBS-T was added to the wells for 30 minutes. Following a 2 mLs per well wash with PBS-Tween-20, 100 μl of O-Phenylenediamine Dihydrochloride in phosphate-citrate buffer, containing urea hydrogen peroxide, was added to the wells for 7-10 minutes as a colorimetric substrate for the peroxidase. […] IC50 values for compound inhibition were calculated directly from graphs of optical density (arbitrary units) versus compound concentration following subtraction of blank values.
Chain of VEGFR2 (KDR) kinase, purified cytoplasmic domain KDR protein (P35968 786-1356): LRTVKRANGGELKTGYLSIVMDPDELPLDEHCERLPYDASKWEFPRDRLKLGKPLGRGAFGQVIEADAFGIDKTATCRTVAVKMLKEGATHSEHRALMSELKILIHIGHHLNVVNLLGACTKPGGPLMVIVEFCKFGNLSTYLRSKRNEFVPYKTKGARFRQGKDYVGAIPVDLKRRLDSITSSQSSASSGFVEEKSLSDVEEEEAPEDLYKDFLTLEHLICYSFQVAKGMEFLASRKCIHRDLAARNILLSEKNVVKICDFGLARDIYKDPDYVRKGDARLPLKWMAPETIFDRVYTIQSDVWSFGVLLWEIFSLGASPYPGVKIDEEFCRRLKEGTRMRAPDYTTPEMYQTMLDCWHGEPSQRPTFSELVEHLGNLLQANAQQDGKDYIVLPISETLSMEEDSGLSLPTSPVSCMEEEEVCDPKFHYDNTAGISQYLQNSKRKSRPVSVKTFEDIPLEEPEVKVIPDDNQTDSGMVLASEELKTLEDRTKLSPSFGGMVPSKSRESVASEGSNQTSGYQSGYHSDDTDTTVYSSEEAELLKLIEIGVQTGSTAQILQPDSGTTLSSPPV
(ELISA stands for enzyme-linked immunosorbent assay.)

The target of experiment [2] is PDGFRβ kinase, purified cytoplasmic domain PDGFR-b protein (Homo sapiens (Human), UniProt P09619). As to the kind of experiment: PDGFRβ Kinase Assay. Type of experiment: biochemical. The note with it: 36 μM ATP, poly-Glu-Tyr (4:1) substrate, 60 minute incubation at 30° C., ELISA read at 492 nm. As for the experimental part: Biochemical PDGFRβ kinase assays were performed in 96 well microtiter plates that were coated overnight with 75 μg of poly-Glu-Tyr (4:1) in 10 mM Phosphate Buffered Saline (PBS), pH 7.4. The coated plates were washed with 2 mLs per well PBS+0.05% Tween-20 (PBS-T), blocked by incubation with PBS containing 1% BSA, then washed with 2 mLs per well PBS-T prior to starting the reaction. Reactions were carried out in 100 μL reaction volumes containing 36 μM ATP in kinase buffer (50 mM Hepes buffer pH 7.4, 20 mM MgCl2, 0.1 mM MnCl2 and 0.2 mM Na3VO4). Test compounds were reconstituted in 100% DMSO and added to the reaction to give a final DMSO concentration of 5%. Reactions were initiated by the addition 20 ul per well of kinase buffer containing 200-300 ng purified cytoplasmic domain PDGFR-b protein (Millipore). Following a 60 minute incubation at 30° C., the reactions were washed 2 mLs per well PBS-T. 100 μl of a monoclonal anti-phosphotyrosine antibody-peroxidase conjugate diluted 1:10,000 in PBS-T was added to the wells for 30 minutes. Following a 2 mLs per well wash with PBS-Tween-20, 100 μl of O-Phenylenediamine Dihydrochloride in phosphate-citrate buffer, containing urea hydrogen peroxide, was added to the wells for 7-10 minutes as a colorimetric substrate for the peroxidase. The reaction was terminated by the addition of 100 μl of 2.5N H2SO4 to each well and read using a microplate ELISA reader set at 492 nm. IC50 values for compound inhibition were calculated directly from graphs of optical density (arbitrary units) versus compound concentration following subtraction of blank values. […]
Chain of PDGFRβ kinase, purified cytoplasmic domain PDGFR-b protein (P09619 554-1106): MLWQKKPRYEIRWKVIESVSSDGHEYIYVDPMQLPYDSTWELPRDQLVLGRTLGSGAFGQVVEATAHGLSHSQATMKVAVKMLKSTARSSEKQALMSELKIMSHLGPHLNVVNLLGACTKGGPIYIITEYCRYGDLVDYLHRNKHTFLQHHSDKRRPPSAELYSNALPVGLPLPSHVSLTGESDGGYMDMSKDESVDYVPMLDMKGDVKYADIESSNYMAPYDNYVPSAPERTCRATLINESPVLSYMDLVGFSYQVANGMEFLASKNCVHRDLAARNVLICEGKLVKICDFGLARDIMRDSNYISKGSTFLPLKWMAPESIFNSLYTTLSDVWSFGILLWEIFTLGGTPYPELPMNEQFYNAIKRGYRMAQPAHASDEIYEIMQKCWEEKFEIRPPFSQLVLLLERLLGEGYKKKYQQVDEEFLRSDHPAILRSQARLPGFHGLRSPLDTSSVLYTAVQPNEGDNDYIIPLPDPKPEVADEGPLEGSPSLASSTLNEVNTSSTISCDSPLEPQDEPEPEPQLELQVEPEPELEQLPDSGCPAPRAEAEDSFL

As to “4-(2-Methylsulfanyl-5,7-dihydro-pyrrolo[3,4-d]pyrimidin-6-yl)-pyridine-2-carboxylic acid (3-trifluoromethyl-phenyl)-amide [Example 126]”, in experiment [1], the IC50 (as a rule, the concentration needed to halve the response being measured) is over 10000 nM.

Turning to `CC(C)c1cccc(NC(=O)c2cccc(N3CCc4nc(N)ncc4C3)c2)c1` [Example 2, 3-(2-amino-7,8-dihydropyrido[4,3-d]pyrimidin-6(5H)-yl)-N-(3-isopropylphenyl)benzamide], the IC50 in experiment [2] stood at 54 nM.

In experiment [2], `Cc1cccc(NC(=O)c2cccc(N3CCc4nc(N)ncc4C3)c2)c1` [Example 3, 3-(2-amino-7,8-dihydropyrido[4,3-d]pyrimidin-6(5H)-yl)-N-(3-methylphenyl)benzamide] came in with an IC50 of 116 nM.

In experiment [2], `CC(C)(C)c1ccc(NC(=O)c2cccc(N3CCc4nc(N)ncc4C3)c2)cc1` [Example 4, 3-(2-amino-7,8-dihydropyrido[4,3-d]pyrimidin-6(5H)-yl)-N-(4-tert-butylphenyl)benzamide] gave a concentration for half-maximal inhibition (IC50) of 109 nM.

For `Nc1ncc2c(n1)CCN(c1cccc(C(=O)Nc3cccc(C(F)(F)F)c3)c1)C2` [Example 5, 3-(2-amino-7,8-dihydropyrido[4,3-d]pyrimidin-6(5H)-yl)-N-[3-(trifluoromethyl)phenyl]benzamide], in experiment [2], the half-maximal inhibitory concentration (IC50) was found to be 47 nM.

`Cc1ccc(NC(=O)c2cccc(N3CCc4nc(N)ncc4C3)c2)cc1` [Example 6, 3-(2-amino-7,8-dihydropyrido[4,3-d]pyrimidin-6(5H)-yl)-N-(4-methylphenyl)benzamide]: in experiment [2], half-maximal inhibition (IC50) required 90 nM.

The molecule `CCCCNC(=O)c1cccc(N2CCc3nc(N)ncc3C2)c1` [Example 16, 3-(2-amino-7,8-dihydropyrido[4,3-d]pyrimidin-6(5H)-yl)-N-butylbenzamide] registered an IC50 in experiment [2] of over 10000 nM.

The molecule `CC(C)(C)C1CCC(NC(=O)c2cccc(N3CCc4nc(N)ncc4C3)c2)CC1` (centres unmarked) [Example 17, 3-(2-amino-7,8-dihydropyrido[4,3-d]pyrimidin-6(5H)-yl)-N-(4-tert-butylcyclohexyl)benzamide] came in with an IC50 in experiment [2] of 246 nM.

As to `Nc1ncc2c(n1)CCN(c1cccc(C(=O)NCC3CCCCC3)c1)C2` [Example 18, 3-(2-amino-7,8-dihydropyrido[4,3-d]pyrimidin-6(5H)-yl)-N-(cyclohexylmethyl)benzamide], it took 602 nM to reach half-maximal inhibition in experiment [2] (IC50).

In experiment [2], `Nc1ncc2c(n1)CCN(c1cccc(C(=O)NC3CCCC3)c1)C2` [Example 19, 3-(2-amino-7,8-dihydropyrido[4,3-d]pyrimidin-6(5H)-yl)-N-cyclopentylbenzamide] registered a half-inhibitory concentration (IC50) of over 10000 nM.

Regarding `Cc1cccc(NC(=O)c2cccc(N3CCc4nc(N)ncc4C3)n2)c1` [Example 37, 6-(2-amino-7,8-dihydropyrido[4,3-d]pyrimidin-6(5H)-yl)-N-(3-methylphenyl)pyridine-2-carboxamide], the IC50 in experiment [2] was over 10000 nM.

`CSc1ncc2c(n1)CCN(c1cc(C)cc(C(=O)Nc3cccc(C(F)(F)F)c3)c1)C2` [Example 140, 3-methyl-5-[2-(methylthio)-7,8-dihydropyrido[4,3-d]pyrimidin-6(5H)-yl]-N-[3-(trifluoromethyl)phenyl]benzamide] gave a concentration for half-maximal inhibition (IC50) in experiment [1] of over 1000 nM.

As to `CSc1ncc2c(n1)CCN(c1cc(C)cc(C(=O)Nc3cccc(C(C)C)c3)c1)C2` [Example 142, N-(3-isopropylphenyl)-3-methyl-5-[2-(methylthio)-7,8-dihydropyrido[4,3-d]pyrimidin-6(5H)-yl]benzamide], the IC50 in experiment [1] was over 1000 nM.

`Cc1cc(C(=O)Nc2cccc(C(F)(F)F)c2)cc(N2CCc3nc(N)ncc3C2)c1` [Example 148, 3-(2-amino-7,8-dihydropyrido[4,3-d]pyrimidin-6(5H)-yl)-5-methyl-N-[3-(trifluoromethyl)phenyl]benzamide] returned a half-inhibitory concentration (IC50) in experiment [2] of 273 nM.

The molecule `Cc1ccc(C(=O)Nc2cccc(C(C)C)c2)cc1N1CCc2nc(N)ncc2C1` [Example 149, 3-(2-amino-7,8-dihydropyrido[4,3-d]pyrimidin-6(5H)-yl)-N-(3-isopropylphenyl)-4-methylbenzamide] had an IC50 in experiment [2] of 30 nM.

The molecule `Cc1cc(C(=O)Nc2cccc(C(C)C)c2)cc(N2CCc3nc(N)ncc3C2)c1` [Example 150, 3-(2-amino-7,8-dihydropyrido[4,3-d]pyrimidin-6(5H)-yl)-N-(3-isopropylphenyl)-5-methylbenzamide] displayed a half-maximal inhibitory concentration (IC50) in experiment [2] of 59 nM.

In experiment [2], `O=C(Nc1ccc(N2CCc3ccncc3C2)cc1)c1cccc(C(F)(F)F)c1` [Example 162, N-[4-(3,4-dihydro-2,7-naphthyridin-2(1H)-yl)phenyl]-3-(trifluoromethyl)benzamide] came in with a concentration for half-maximal inhibition (IC50) of over 10000 nM.

In experiment [2], `Cc1cccc(NC(=O)Nc2ccc(N3CCc4ccncc4C3)cc2)c1` [Example 163, 1-[4-(3,4-dihydro-2,7-naphthyridin-2(1H)-yl)phenyl]-3-(3-methylphenyl)urea] showed an IC50 of 1560 nM.

`O=C(Nc1ccccc1)Nc1ccc(N2CCc3ccncc3C2)cc1` [Example 164, 1-[4-(3,4-dihydro-2,7-naphthyridin-2(1H)-yl)phenyl]-3-phenylurea] showed an IC50 in experiment [2] of over 10000 nM.

Consider `Cc1ccc(NC(=O)Nc2ccc(N3CCc4ccncc4C3)cc2)cc1` [Example 165, 1-[4-(3,4-dihydro-2,7-naphthyridin-2(1H)-yl)phenyl]-3-(4-methylphenyl)urea], for which the half-maximal inhibitory concentration (IC50) in experiment [2] and in experiment [1] was over 1000 nM each time.

As for `Cc1cccc(NC(=O)Nc2ccc(N3CCc4ccncc4C3)c(C)c2)c1` [Example 166, 1-[4-(3,4-dihydro-2,7-naphthyridin-2(1H)-yl)-3-methylphenyl]-3-(3-methylphenyl)urea], the concentration for half-maximal inhibition (IC50) in experiment [2] turned out to be 36 nM.

In experiment [2], `Cc1cccc(NC(=O)Nc2ccc(N3CCc4ccncc4C3)cc2C)c1` [Example 167, 1-[4-(3,4-dihydro-2,7-naphthyridin-2(1H)-yl)-2-methylphenyl]-3-(3-methylphenyl)urea] had a concentration for half-maximal inhibition (IC50) of 1050 nM.

In the case of `CC(C)c1cccc(NC(=O)c2cccc(N3CCc4ccncc4C3)c2)c1` [Example 168, 3-(3,4-dihydro-2,7-naphthyridin-2(1H)-yl)-N-(3-isopropylphenyl)benzamide], half-maximal inhibition in experiment [2] (IC50) was put at 40 nM.

`COC(=O)c1cncc2c1CCN(c1cccc(C(=O)Nc3cccc(C(C)C)c3)c1)C2` [Example 169, Methyl 7-(3-{[(3-isopropylphenyl)amino]carbonyl}phenyl)-5,6,7,8-tetrahydro-2,7-naphthyridine-4-carboxylate]: in experiment [2], it took 15 nM to reach half-maximal inhibition (IC50).

`Nc1ncc2c(n1)CCN(c1cccc(C(=O)Nc3ccc(F)c(C(F)(F)F)c3)c1)C2` [Example 176, 3-(2-amino-7,8-dihydropyrido[4,3-d]pyrimidin-6(5H)-yl)-N-[4-fluoro-3-(trifluoromethyl)phenyl]benzamide] displayed a half-inhibitory concentration (IC50) in experiment [2] of 61 nM.

For the origin of these results see patent publication US8889870B2, “Kinase inhibitors” (Allergan, Inc., priority 2012, dated 2014).
